The data set in a line: Solubility in ITC buffer. The format is physicochemical. The following applies: 10 mM sodium acetate, pH 5.0, 2% DMSO.

With KNI-10006, the solubility result is listed as “limited solubility”.

Source of the values: article PMC3209665 (Chemical biology & drug design, 2009).
